This passage reports Emax and EC50 results from patent US9725416B2, “Ethynyl derivatives” (Hoffmann-La Roche Inc., priority 2014, dated 2017).

The target of this test is T1, human mGlu4 receptor (Homo sapiens, UniProt Q14833).
T1 construct: expressed in transfected cells; host or cells: HEK-293 (monoclonal, stably transfected)
In words: Ca2+ mobilization in vitro assay on recombinant human mGlu4 expressed in HEK293 cells (mGlu4 PAM). The test is classed as cell-based. The settings on record: for Emax: HEK293, maximal response in % of the maximal stimulatory effect obtained with saturating concentrations of L-AP4, read-out: Eff. (%); for EC50: HEK-293 cells, Ca2+ mobilization, L-AP4 added at EC20. The protocol:
Determination of EC50 Values Using a Ca2+ mobilization in vitro Assay on Recombinant Human mGlu4 Expressed in HEK293 cells:
A monoclonal HEK-293 cell line stably transfected with a cDNA encoding for the human mGlu4 receptor was generated; for the work with mGlu4 Positive Allosteric Modulators (PAMs), a cell line with low receptor expression levels and low constitutive receptor activity was selected to allow the differentiation of agonistic versus PAM activity. Cells were cultured according to standard protocols (Freshney, 2000) in Dulbecco's Modified Eagle Medium with high glucose supplemented with 1 mM glutamine, 10% (vol/vol) heat-inactivated bovine calf serum, Penicillin/Streptomycin, 50 μg/ml hygromycin and 15 μg/ml blasticidin (all cell culture reagents and antibiotics from Invitrogen, Basel, Switzerland).
About 24 hrs before an experiment, 5×10^4 cells/well were seeded in poly-D-lysine coated, black/clear-bottomed 96-well plates. The cells were loaded with 2.5 μM Fluo-4AM in loading buffer (1×HBSS, 20 mM HEPES) for 1 hr at 37° C. and washed five times with loading buffer. The cells were transferred into a Functional Drug Screening System 7000 (Hamamatsu, Paris, France), and 11 half logarithmic serial dilutions of test compound at 37° C. were added and the cells were incubated for 10-30 min. with on-line recording of fluorescence. Following this pre-incubation step, the agonist (2S)-2-amino-4-phosphonobutanoic acid (L-AP4) was added to the cells at a concentration corresponding to EC20 with on-line recording of fluorescence; in order to account for day-to-day variations in the responsiveness of cells, the EC20 of L-AP4 was determined immediately ahead of each experiment by recording of a full dose-response curve of L-AP4.
Responses were measured as peak increase in fluorescence minus basal (i.e. fluorescence without addition of L-AP4), normalized to the maximal stimulatory effect obtained with saturating concentrations of L-AP4. Graphs were plotted with the % maximal stimulatory using XLfit, a curve fitting program that iteratively plots the data using Levenburg Marquardt algorithm. The single site competition analysis equation used was y=A+((B−A)/(1+((x/C)D))), where y is the % maximal stimulatory effect, A is the minimum y, B is the maximum y, C is the EC50, x is the log 10 of the concentration of the competing compound and D is the slope of the curve (the Hill Coefficient). From these curves the EC50 (drug concentration at which 50% of the maximal receptor activation was achieved), the Hill coefficient as well as the maximal response in % of the maximal stimulatory effect obtained with saturating concentrations of L-AP4 were calculated (see FIG. 1).
A depression of the signal observed after addition of the EC20 concentration of L-AP4was indicative of an inhibitory activity of the test compound.

The structures appear in SMILES notation.

T1 sequence (Q14833 33-912): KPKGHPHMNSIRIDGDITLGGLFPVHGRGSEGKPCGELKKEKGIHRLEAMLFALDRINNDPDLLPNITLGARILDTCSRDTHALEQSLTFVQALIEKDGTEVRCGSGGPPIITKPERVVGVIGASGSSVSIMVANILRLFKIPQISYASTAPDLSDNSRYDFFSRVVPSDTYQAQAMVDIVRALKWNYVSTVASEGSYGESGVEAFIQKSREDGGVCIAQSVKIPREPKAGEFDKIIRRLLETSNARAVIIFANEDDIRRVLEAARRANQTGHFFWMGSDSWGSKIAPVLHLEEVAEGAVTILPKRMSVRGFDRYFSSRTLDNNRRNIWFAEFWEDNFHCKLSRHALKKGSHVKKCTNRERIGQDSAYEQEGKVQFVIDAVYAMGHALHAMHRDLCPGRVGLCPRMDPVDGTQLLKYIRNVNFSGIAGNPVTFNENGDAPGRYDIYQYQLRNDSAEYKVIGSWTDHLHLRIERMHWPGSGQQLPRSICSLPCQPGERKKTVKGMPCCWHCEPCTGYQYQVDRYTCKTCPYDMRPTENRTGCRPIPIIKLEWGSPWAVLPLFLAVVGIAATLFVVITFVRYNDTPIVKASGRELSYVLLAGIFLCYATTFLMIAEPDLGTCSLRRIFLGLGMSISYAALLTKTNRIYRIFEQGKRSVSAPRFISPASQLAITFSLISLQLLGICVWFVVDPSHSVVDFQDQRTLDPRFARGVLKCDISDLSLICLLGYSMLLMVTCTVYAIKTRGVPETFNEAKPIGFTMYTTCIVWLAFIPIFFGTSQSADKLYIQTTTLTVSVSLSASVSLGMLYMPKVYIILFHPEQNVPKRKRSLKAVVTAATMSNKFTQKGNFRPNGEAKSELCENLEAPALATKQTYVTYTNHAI

As for `CC12CC(=O)N(c3c(F)cc(C#Cc4ccccc4)cc3F)C(=O)N1CCNC2=O` (racemic) [Example 25, (9aRS)-7-[2,6-Difluoro-4-(2-phenylethynyl)phenyl]-9a-methyl-2,3,4,9-tetrahydropyrazino[1,2-c]pyrimidine-1,6,8-trione], the Emax came out at 105% and the EC50 amounted to 83 nM.

For the compound `CCC1(c2ccccc2)CC(=O)N(c2c(F)cc(C#Cc3cccnc3)cc2F)C(=O)N1C` (racemic) [Example 48, (6RS)-3-[2,6-Difluoro-4-[2-(3-pyridyl)ethynyl]phenyl]-6-ethyl-1-methyl-6-phenyl-hexahydropyrimidine-2,4-dione], the Emax stood at 108% and the EC50 stood at 88 nM.

On to `CN1C(=O)N(c2c(F)cc(C#Cc3ccccc3)cc2F)C(=O)CC1(C)c1ccc(Cl)nc1` (racemic) [Example 51, (6RS)-6-(6-Chloro-3-pyridyl)-3-[2,6-difluoro-4-(2-phenylethynyl)phenyl]-1,6-dimethyl-hexahydropyrimidine-2,4-dione], for which the Emax was 108% and the half-maximal effective concentration (EC50) was found to be 88 nM.

As for `CN1C(=O)N(c2c(F)cc(C#Cc3ccccc3)cc2F)C(=O)C[C@@]1(C)c1ccnc(Cl)c1` [Example 60, (6S)-6-(2-Chloro-4-pyridyl)-3-[2,6-difluoro-4-(2-phenylethynyl)phenyl]-1,6-dimethyl-hexahydropyrimidine-2,4-dione], the Emax was determined as 113% and the EC50 was determined as 38 nM.

`Cc1nccc([C@]2(C)CC(=O)N(c3c(F)cc(C#Cc4ccccc4)cc3F)C(=O)N2C)n1` [Example 76, (6S)-3-[2,6-Difluoro-4-(2-phenylethynyl)phenyl]-1,6-dimethyl-6-(2-methylpyrimidin-4-yl)hexahydropyrimidine-2,4-dione]: the Emax was determined as 111% and the EC50 was 103 nM.

For the compound `CC12CC(=O)N(c3c(F)cc(C#Cc4ccccc4)cc3F)C(=O)N1CCN(c1ccccc1)C2=O` (racemic) [Example 38, (9aRS)-7-[2,6-Difluoro-4-(2-phenylethynyl)phenyl]-9a-methyl-2-phenyl-4,9-dihydro-3H-pyrazino[1,2-c]pyrimidine-1,6,8-trione], the Emax amounted to 105% and the EC50 is 31 nM.

On to `CN1C(=O)N(c2c(F)cc(C#Cc3ccccc3)cc2F)C(=O)C[C@@]1(C)c1ccc(=O)n(C)n1` [Example 83, (6S)-3-[2,6-Difluoro-4-(2-phenylethynyl)phenyl]-1,6-dimethyl-6-(1-methyl-6-oxo-pyridazin-3-yl)hexahydropyrimidine-2,4-dione], for which the Emax turned out to be 116% and the EC50 is 42 nM.

Turning to `CN1C(=O)N(c2ccc(C#Cc3ccccc3)cc2)C(=O)CC1(C)c1ccccc1` (racemic) [Example 24, (6RS)-1,6-Dimethyl-6-phenyl-3-[4-(2-phenylethynyl)phenyl]hexahydropyrimidine-2,4-dione], the Emax amounted to 126% and the EC50 was determined as 254 nM.

As for `Cc1cc([C@]2(C)CC(=O)N(c3c(F)cc(C#Cc4ccccc4)cc3F)C(=O)N2C)ccn1` [Example 62, (6S)-3-[2,6-Difluoro-4-(2-phenylethynyl)phenyl]-1,6-dimethyl-6-(2-methyl-4-pyridyl)hexahydropyrimidine-2,4-dione], the Emax came out at 102% and the EC50 came out at 56 nM.

With `CN1C(=O)N(c2c(F)cc(C#Cc3cccnc3)cc2Cl)C(=O)CC1(C)c1ccccc1` (racemic) [Example 34, (6RS)-3-[2-Chloro-6-fluoro-4-[2-(3-pyridyl)ethynyl]phenyl]-1,6-dimethyl-6-phenyl-hexahydropyrimidine-2,4-dione], the Emax worked out at 150% and the EC50 was found to be 135 nM.

`COc1ccc([C@]2(C)CC(=O)N(c3c(F)cc(C#Cc4ccccc4)cc3F)C(=O)N2C)cn1` [Example 63, (6S)-3-[2,6-Difluoro-4-(2-phenylethynyl)phenyl]-6-(6-methoxy-3-pyridyl)-1,6-dimethyl-hexahydropyrimidine-2,4-dione]: the Emax amounted to 109% and the EC50 worked out at 42 nM.

For the compound `CN1C(=O)N(c2ncc(C#Cc3ccccc3)cc2Cl)C(=O)CC1(C)c1ccccc1` (racemic) [Example 32, (6RS)-3-[3-Chloro-5-(2-phenylethynyl)-2-pyridyl]-1,6-dimethyl-6-phenyl-hexahydropyrimidine-2,4-dione], the Emax was 103% and the EC50 was 155 nM.

`CCN1C(=O)N(c2c(F)cc(C#Cc3ccccc3)cc2F)C(=O)C[C@@]1(C)c1cccnc1` [Example 52, (6S)-3-[2,6-Difluoro-4-(2-phenylethynyl)phenyl]-1-ethyl-6-methyl-6-(3-pyridyl)hexahydropyrimidine-2,4-dione]: the Emax was 99% and the EC50 stood at 48 nM.

In the case of `CN1C(=O)N(c2ccc(C#Cc3ccccc3)cn2)C(=O)CC1(C)c1ccccc1` (racemic) [Example 23, (6RS)-1,6-Dimethyl-6-phenyl-3-[5-(2-phenylethynyl)-2-pyridyl]hexahydropyrimidine-2,4-dione], the Emax came out at 126% and the EC50 is 947 nM.

Take `CN1C(=O)N(c2c(F)cc(C#Cc3ccccc3)cc2F)C(=O)C[C@@]1(C)c1ccn(C)c(=O)c1` [Example 75, (6S)-3-[2,6-Difluoro-4-(2-phenylethynyl)phenyl]-1,6-dimethyl-6-(1-methyl-2-oxo-4-pyridyl)hexahydropyrimidine-2,4-dione]: the Emax was found to be 108% and the EC50 was determined as 55 nM.

With `COc1ncc([C@]2(C)CC(=O)N(c3c(F)cc(C#Cc4ccccc4)cc3F)C(=O)N2C)cn1` [Example 79, (6S)-3-[2,6-Difluoro-4-(2-phenylethynyl)phenyl]-6-(2-methoxypyrimidin-5-yl)-1,6-dimethyl-hexahydropyrimidine-2,4-dione], the Emax came to 105% and the EC50 was 46 nM.

`CN1C(=O)N(c2c(F)cc(C#Cc3ccccc3)cc2F)C(=O)C[C@@]1(C)c1ccncc1` [Example 78, (6S)-3-[2,6-Difluoro-4-(2-phenylethynyl)phenyl]-1,6-dimethyl-6-(4-pyridyl)hexahydropyrimidine-2,4-dione]: the Emax came to 111% and the EC50 is 68 nM.

In the case of `CN1C(=O)N(c2c(F)cc(C#Cc3ccccc3)cc2F)C(=O)C2CCCC21C` (stereo in doubt) [Example 14, (4aRS,7aRS)-3-[2,6-Difluoro-4-(2-phenylethynyl)phenyl]-1,7a-dimethyl-4a,5,6,7-tetrahydrocyclopenta[d]pyrimidine-2,4-dione], the Emax was determined as 119% and the EC50 was 125 nM.

As to `CN1C(=O)N(c2c(F)cc(C#Cc3ccccc3)cc2F)C(=O)CC1(C)c1ccccn1` (racemic) [Example 27, (6RS)-3-[2,6-Difluoro-4-(2-phenylethynyl)phenyl]-1,6-dimethyl-6-(2-pyridyl)hexahydropyrimidine-2,4-dione], the Emax turned out to be 99% and the EC50 was 72 nM.

As for `CN1C(=O)N(c2ncc(C#Cc3ccccc3)cc2F)C(=O)C[C@@]1(C)c1cccnc1` [Example 50, (6S)-3-[3-Fluoro-5-(2-phenylethynyl)-2-pyridyl]-1,6-dimethyl-6-(3-pyridyl)hexahydropyrimidine-2,4-dione], the Emax is 164% and the EC50 was 104 nM.

For the compound `COc1cc([C@]2(C)CC(=O)N(c3c(F)cc(C#Cc4ccccc4)cc3F)C(=O)N2C)ccn1` [Example 73, (6S)-3-[2,6-Difluoro-4-(2-phenylethynyl)phenyl]-6-(2-methoxy-4-pyridyl)-1,6-dimethyl-hexahydropyrimidine-2,4-dione], the Emax is 120% and the EC50 worked out at 47 nM.

As for `CC(C)n1cc([C@]2(C)CC(=O)N(c3c(F)cc(C#Cc4ccccc4)cc3F)C(=O)N2C)ccc1=O` [Example 68, (6S)-3-[2,6-Difluoro-4-(2-phenylethynyl)phenyl]-6-(1-isopropyl-6-oxo-3-pyridyl)-1,6-dimethyl-hexahydropyrimidine-2,4-dione], the Emax is 113% and the EC50 is 44 nM.

In the case of `CN1C(=O)N(c2c(F)cc(C#Cc3ccccc3)cc2F)C(=O)C[C@@]1(C)c1cnc2c(ccn2C)c1` [Example 84, (6S)-3-[2,6-Difluoro-4-(2-phenylethynyl)phenyl]-1,6-dimethyl-6-(1-methylpyrrolo[2,3-b]pyridin-5-yl)hexahydropyrimidine-2,4-dione], the Emax came to 114% and the EC50 stood at 40 nM.
